Experimental data taken from patent publication US20110105608A1, “MODULATORS OF NUCLEAR RECEPTOR CO-REGULATORY PROTEIN BINDING” (NORTHEASTERN UNIVERSITY, priority 2008, published 2011).
Several values for one entry are separate records, joined by “and”; a condition that tells them apart may be missing. Equal values may be shown once. Read-outs that look alike come from different tables or passages of the source. Values belong to the compound of their own block, whether it stands above or below them.

Key:
[1] = molecular target: T1, interaction between ERα and the LXXLL2 peptide from the coactivator GRIP1 (Homo sapiens, UniProt P03372); test: Mammalian two hybrid assay; assay type: cell-based; conditions: FIG. 4; for Effect on the LXXLL-ER interaction: second assay, 5-40 μM
T1 construct: expressed in transfected cells
T1 sequence (P03372 1-595): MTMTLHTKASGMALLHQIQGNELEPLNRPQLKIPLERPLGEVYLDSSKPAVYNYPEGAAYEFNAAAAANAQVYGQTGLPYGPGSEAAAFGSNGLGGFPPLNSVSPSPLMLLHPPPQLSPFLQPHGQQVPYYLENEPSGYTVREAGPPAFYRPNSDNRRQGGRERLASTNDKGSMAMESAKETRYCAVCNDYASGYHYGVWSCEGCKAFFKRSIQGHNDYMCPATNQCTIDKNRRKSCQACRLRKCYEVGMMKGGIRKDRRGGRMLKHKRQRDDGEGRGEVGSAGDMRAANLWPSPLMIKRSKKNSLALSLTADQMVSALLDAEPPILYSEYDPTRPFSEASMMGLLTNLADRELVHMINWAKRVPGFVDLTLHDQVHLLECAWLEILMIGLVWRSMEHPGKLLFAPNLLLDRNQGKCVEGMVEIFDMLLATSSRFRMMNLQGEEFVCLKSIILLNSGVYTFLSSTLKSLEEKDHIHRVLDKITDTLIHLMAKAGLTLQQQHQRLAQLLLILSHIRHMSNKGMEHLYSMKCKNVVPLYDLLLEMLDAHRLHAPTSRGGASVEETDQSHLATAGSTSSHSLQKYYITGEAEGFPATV
Method: The Mammalian Hybrid Assay used a similar procedure as described in Chang et al., Molec. & Cellul. Biol., (1999) 19:12 8226-8239 except the compounds shown in Table 1, supra, were used instead of phage-derived peptides.
(§1) Human cervical cancer (HeLa) and hepatoma (HepG2) cells were cultured in minimum essential medium (Life Technologies, Inc.) supplemented with 10% fetal bovine serum (HyClone), 0.1 mM nonessential amino acids, and 1 mM sodium pyruvate (Life Technologies, Inc.) and maintained in a humidified 37° C. incubator with 5% CO2. For transient transfections, cells were split into 24-well plates 24 h before transfection. Lipofectin (Life Technologies, Inc.)-mediated transfection has been described in detail previously (27). A DNA-Lipofectin mixture containing a total of 3,000 ng of plasmid in each of triplicate samples was incubated with cells for 3 to 5 h, and transfection was stopped by replacing the transfection mix with fresh medium (minimal essential medium without phenol red) containing 10% charcoal-stripped serum. Receptor ligands were added to the cells 14 to 16 h before the assay. Luciferase and (3-galactosidase activities were measured. In mammalian two-hybrid assays, for a typical triplicate of transfection, 2,000 ng of 5×Gal4Luc3 reporter plasmid, 400 ng of receptor-VP16 fusion, 400 ng of pM (Gal4 DBD)-peptide fusion constructs, and 200 ng of normalization plasmid pCMVβgal were used. For ER transcription disruption assays, 1,600 ng of 3 XERE-TATA-Luc reporter, 200 ng of pCMVβgal, 400 ng of either pRST7ERα, pRST7ERβ, or other receptor mutant constructs, and 0 to 800 ng of pM-peptide fusion plasmids were used. The parent pM vector (Gal4DBD without peptide fusion) was used in these experiments to balance the amount of input DNA in transfections. All transfections were performed at least three times.
The mammalian two hybrid assay assessed whether the compounds disrupt the interaction between ERα and an LXXLL peptide derived from an ER coactivator (GRIP1). OH-tam is an ERα antagonist and was used as a positive control.
(§2) A second assay with another group of compounds was performed to determine the proper dose for use in cell culture. Compounds were used at concentrations between 5-40 μM. The mammalian two hybrid assay was used to examine the interaction between ERα and the LXXLL2 peptide from the coactivator GRIP1. #82 and OH-tam were used as controls.

[2] = system: cells; test: Toxicity to cells seen in the mammalian two hybrid dose-finding assay; assay type: cell-based, Human; conditions: FIG. 4; 5-40 μM in cell culture
Method: as §1, §2
AW78 was also effective. […] AW77 was very toxic to cells at the high concentrations tested.

[3] = molecular target: T2, full-length ER alpha (Homo sapiens, UniProt P03372); test: Cell-based luciferase reporter gene assay (2ERE Luc) in HEC-1 cells; conditions: * = very small dynamic range compared to positive control
T2 construct: 100 ng of full-length ER alpha expression vector; expressed in transfected cells; host or cells: HEC-1 (human endometrial cancer) cells
T2 sequence (P03372 1-595): T1 sequence (P03372 1-595)
Excerpt: (§3) The protocols for both the time-resolved fluorescence resonance energy transfer (TR-FRET) assay and the cell-based reporter gene assay can be found in Parent, et al. (2008) J. Med. Chem. 51(20):6512-30. A 15-mer SRC1-Box II peptide and a published guanylhydrazone CBI (Lafrate et al., (2008) Bioorg. Med. Chem. 2008:16(23)) were used as positive controls in the TR-FRET and reporter gene assays, respectively.
Human endometrial cancer (HEC-1) cells were maintained in culture and transfected in 24 well plates. HBSS (50 μL/well), Holo-transferrin (Sigma T1408) (20 μL/well), and lipofectin (Invitrogen no. 18292-011) (5 μL/well) were incubated together at RT for 5 min. A DNA mixture containing 200 ng of pCMVβ-galactosidase as an internal control, 500 ng of the estrogen responsive reporter gene plasmid 2ERE Luc, and 100 ng of full-length ER alpha expression vector with 75 μL of HBSS per well was added to the first mixture and allowed to incubate for 20 min at RT. After changing the cell media to Opti-MEM (350 μL/well), 150 μL of the transfection mixture was added to each well. The cells were incubated at 37° C. in a 5% CO2 containing incubator for 6 h before the medium was replaced with fresh medium containing 5% charcoal-dextran-treated calf serum and the desired concentrations of ligands. Luciferase reporter gene activity was assayed 24 h after ligand addition.
In the initial screen, compounds were assayed in a dose-response format at concentrations ranging from 20 μM to 0.6 μM; […]. Upon validation of antagonistic activity, mechanism of action was examined by repeating the compound titration in the presence of both 10^-7 and 10^-9 M E2 with an expectation that changing the concentration of E2 100-fold would not change the IC50 of true coactivator binding inhibitors. These assays was also repeated to confirm results. The positive control is a guanyl hydrazone.

[4] = molecular target: T3, endogenous ERα in MCF7 cells (Homo sapiens, UniProt P03372); test: RBA assay, competition with 3H-estradiol in MCF7 cells; assay type: binding; conditions: 1 nM 3H-estradiol
T3 construct: the endogenous ERα in MCF7 cells; endogenous in cells; host or cells: MCF7 breast cancer cells
T3 sequence (P03372 1-595): T1 sequence (P03372 1-595)
Method: The RBA assay was performed to examine the ability of the compounds to compete for the binding of 1 nM of 3H-estradiol to the endogenous ERα in MCF7 cells.

[5] = molecular target: T4, purified full-length human ERα (Homo sapiens, UniProt P03372); test: Estrogen receptor relative binding affinity assay, competitive radiometric, [3H]estradiol tracer; conditions: RBA of estradiol set to 100%, 18-24 h at 0° C.
T4 construct: purified full-length human ERα and ERβ were purchased from PanVera/Invitrogen; purchased PanVera/Invitrogen (Carlsbad, Calif.)
T4 sequence (P03372 1-595): T1 sequence (P03372 1-595)
Method: (§4) Relative binding affinity assays were run to determine whether the compounds of this disclosure are traditional ligands that compete with estradiol. […]; purified full-length human ERα and ERβ were purchased from PanVera/Invitrogen (Carlsbad, Calif.). Incubations were conducted for 18-24 h at 0° C. Hydroxyapatite (BioRad, Hercules, Calif.) was used to absorb the receptor-ligand complexes, and free ligand was washed away. The binding affinities are expressed as relative binding affinity (RBA) values with the RBA of estradiol set to 100%. […]

[6] = molecular target: T5, purified full-length human ERβ (Homo sapiens, UniProt Q92731); test: as above; conditions: RBA of estradiol set to 100%, 18-24 h at 0° C.
T5 construct: purified full-length human ERα and ERβ were purchased from PanVera/Invitrogen; purchased PanVera/Invitrogen (Carlsbad, Calif.)
Method: as §4

[7] = molecular target: T6, ERα-417 / SRC-3-NRD (Homo sapiens, UniProt P03372, C381S/C530S); test: In vitro coactivator binding inhibitor TR-FRET CBI assay (displacement of SRC3); conditions: * = very small dynamic range compared to positive control
T6 sequence (P03372 304-554 C381S/C530S limits assumed): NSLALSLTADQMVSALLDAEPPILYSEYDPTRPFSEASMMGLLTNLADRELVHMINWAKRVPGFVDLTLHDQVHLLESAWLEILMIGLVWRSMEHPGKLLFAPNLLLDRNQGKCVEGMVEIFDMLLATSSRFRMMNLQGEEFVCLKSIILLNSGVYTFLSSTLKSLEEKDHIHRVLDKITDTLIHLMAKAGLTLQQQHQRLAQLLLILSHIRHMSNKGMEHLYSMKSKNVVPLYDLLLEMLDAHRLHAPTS
Excerpt: as §3
Purified ERα-417, labeled site-specifically with maleimide-biotin (Quanta BioDesign) and SRC-3-NRD, labeled nonspecifically through cysteine residues with iodoacetamide-fluorescein (Invitrogen), were used in the TR-FRET assays. […]. In a second 96-well Nunc polypropylene plate (Nalge Nunc International, Rochester, N.Y.), a 0.02 M solution of each coactivator binding inhibitor was serially diluted in a 1:10 fashion into DMF. Each concentration of coactivator binding inhibitor or vehicle was then diluted 1:10 into TR-FRET buffer, and 10 μL of this solution was added to the stock […] solution in the 96-well plate. After a 20 min incubation, 5 μL of 200 nM fluorescein-SRC-3-NRD was added to each well. This mixture was allowed to incubate for 1 h at RT in the dark. TR-FRET was measured using an excitation filter at 340/10 nm and emission filters for terbium and fluorescein at 495/20 and 520/25 nm, respectively. […].
The results are shown in FIGS. 1A and 1b and show the displacement of the SRC3. The peptide control has an IC50 of about 1 uM.

[8] = HEC-1 cells, in the presence of estradiol, read-out: Reporter Gene IC50
[9] = repeat run, read-out: Reporter Gene IC50 (μM) - repeat
[10] = estradiol 1 μM, read-out: TR-FRET IC50
[11] = repeat run, read-out: TR-FRET Repeat

T5 sequence (Q92731 whole entry): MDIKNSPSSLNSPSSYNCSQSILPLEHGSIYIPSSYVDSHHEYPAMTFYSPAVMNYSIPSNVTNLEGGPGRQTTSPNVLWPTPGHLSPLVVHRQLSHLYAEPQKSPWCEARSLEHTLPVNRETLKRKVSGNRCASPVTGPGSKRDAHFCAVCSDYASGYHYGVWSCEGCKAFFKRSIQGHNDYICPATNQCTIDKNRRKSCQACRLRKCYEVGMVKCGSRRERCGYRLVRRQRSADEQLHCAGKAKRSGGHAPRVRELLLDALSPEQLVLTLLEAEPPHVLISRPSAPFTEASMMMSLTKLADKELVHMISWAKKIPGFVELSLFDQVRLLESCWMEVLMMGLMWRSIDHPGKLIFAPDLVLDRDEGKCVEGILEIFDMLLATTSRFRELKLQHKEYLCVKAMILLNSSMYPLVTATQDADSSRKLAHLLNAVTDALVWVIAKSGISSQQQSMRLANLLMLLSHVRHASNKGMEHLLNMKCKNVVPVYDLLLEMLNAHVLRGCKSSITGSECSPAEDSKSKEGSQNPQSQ

Structure (SMILES): CCOC(=O)COc1ccc(-c2ccc(O)c(C(C)(C)C)c2)cc1C(C)(C)C [AW-73]
- Effect on the LXXLL-ER interaction [1]: induced LXXLL-ER interaction

Structure (SMILES): CCOC(=O)COc1ccc(-c2ccc(O)c(C(C)CC)c2)cc1C(C)CC (stereo not drawn) [AW-78]
- Effect on the LXXLL-ER interaction [1]: effective

Structure (SMILES): CCOC(=O)COc1ccc(-c2ccc(OCCN(C)C)c(C(C)CC)c2)cc1C(C)CC (stereo not drawn) [AW-79]
- Effect on the LXXLL-ER interaction [1]: induced LXXLL-ER interaction
- Toxicity to cells [2]: toxic at a high dose

Structure (SMILES): CN(C)CCOc1ccc(-c2ccc(OCC(=O)O)c(C(C)(C)C)c2)cc1C(C)(C)C [AW-82]
- IC50 [3, 8]: 6 µM
- Competition for the binding of 3H-estradiol [4]: competed
- ERα RBA ([5]; listed as AW-III-82-56): 0.055% and 0.038% and 0.049 ± 0.016%
- ERβ RBA ([6]; listed as AW-III-82-56): 0.018% and 0.017% and 0.018 ± 0.001%

Structure (SMILES): CCOC(=O)COc1ccc(-c2ccc(O)cc2)cc1 [AW-84]
- Effect on the LXXLL-ER interaction [1]: induced LXXLL-ER interaction

Structure (SMILES): CCC(C)c1cc(-c2ccc(OCC(=O)O)c(C(C)CC)c2)ccc1OCCN(C)C (stereo not drawn) [AW-87]
- IC50 [3, 8]: 1.8 µM
- IC50 [3, 9]: 6 µM
- IC50 [7, 10]: 87 µM
- IC50 [7, 11]: 227 µM
- ERα RBA [5]: ~0.001%
- ERβ RBA [6]: ~0.001%

Structure (SMILES): CCOC(=O)COc1ccc(-c2ccc(O)c(Cc3ccccc3)c2)cc1Cc1ccccc1 [PW-77]
- Toxicity to cells [2]: very toxic

Second part, led by results:

- Concentration at which the ERα-LXXLL2 interaction is inhibited ([1]; tested at 5-40 μM): about 40 μM
Structure (SMILES): CCOC(=O)COc1ccc(-c2ccc(O)c(C(C)C)c2)cc1C(C)C [PW-74]
- Toxicity to cells [2]: no significant toxicity

- Effect on the LXXLL-ER interaction [1]: induced LXXLL-ER interaction
Structure (SMILES): CCOC(=O)COc1ccc(-c2ccc(OCCN(C)C)c(C(C)C)c2)cc1C(C)C [PW-76]

- Effect on the LXXLL-ER interaction [1]: induced LXXLL-ER interaction
Structure (SMILES): CCOC(=O)COc1ccc(-c2ccc(OCCN(C)C)c(Cc3ccccc3)c2)cc1Cc1ccccc1 [PW-78]

- IC50 [3, 8]: 21 µM
- IC50 [7, 10]: 55 µM
- IC50 [7, 11]: 583 µM
- ERα RBA [5]: <0.001%
- ERβ RBA [6]: <0.001%
Structure (SMILES): CC(C)c1cc(-c2ccc(OCC(=O)O)c(C(C)C)c2)ccc1OCCN(C)C [PW-80]

- IC50 [3, 8]: 13 µM
- Competition for the binding of 3H-estradiol [4]: did not compete
- IC50 [7, 10]: 163 µM
- IC50 [7, 11]: 1100 µM
- ERα RBA [5]: <0.001%
- ERβ RBA [6]: ~0.001%
Structure (SMILES): CN(C)CCOc1ccc(-c2ccc(OCC(=O)O)c(Cc3ccccc3)c2)cc1Cc1ccccc1 [PW-81]

- Effect on the LXXLL-ER interaction [1]: induced LXXLL-ER interaction
Structure (SMILES): CCOC(=O)COc1ccc(-c2ccc(OCCN(C)C)cc2)cc1 [PW-82]

- IC50 [3, 8]: 5.8 µM
- IC50 [3, 9]: 18 µM
- Competition for the binding of 3H-estradiol [4]: competed
- IC50 [7, 10]: 205 µM
- IC50 [7, 11]: 2050 µM
- ERα RBA [5]: <0.001%
- ERβ RBA [6]: <0.001%
Structure (SMILES): CN(C)CCOc1ccc(-c2ccc(OCC(=O)O)cc2)cc1 [PW-83]
